Data on two compounds can be found in PMC5402301, “Discovery of tauroursodeoxycholic acid biotransformation enzymes from the gut microbiome of black bears using metagenomics” (Scientific Reports, 2017).

Assay in all cases: NADP+ reduction at […] nm, Michaelis-Menten fit
Format in all cases: biochemical
Holding throughout (settings): NADP+ (0.5 mM in standard assay), 50 mM Tris-HCl pH 8.0, 25 °C

Test [1] relates to T1, Y1-b-1.
T1 construct: full-length, GST fusion (pGEX-6P-1) expressed in E. coli BL21, GST tag cut off with PreScission protease; raw reads SRA SRP079591

Test [2] deals with T2, S1-a-1.
T2 construct: full-length, GST fusion (pGEX-6P-1) expressed in E. coli BL21, GST tag cut off with PreScission protease; raw reads SRA SRP079591

The test system of test [3] is T3, Y1-a-1.
T3 construct: full-length, GST fusion (pGEX-6P-1) expressed in E. coli BL21, GST tag cut off with PreScission protease; raw reads SRA SRP079591

The subject of test [4] is T4, H1-a-2.
T4 construct: full-length, GST fusion (pGEX-6P-1) expressed in E. coli BL21, GST tag cut off with PreScission protease; raw reads SRA SRP079591

Test [5] has as its system T5, S1-a-2.
T5 construct: full-length, GST fusion (pGEX-6P-1) expressed in E. coli BL21, GST tag cut off with PreScission protease; raw reads SRA SRP079591

Test [6] deals with T6, H1-a-1.
T6 construct: full-length, GST fusion (pGEX-6P-1) expressed in E. coli BL21, GST tag cut off with PreScission protease; raw reads SRA SRP079591

By Km is commonly meant the concentration of substrate that gives half-maximal velocity. Turning to `C[C@H](CCC(=O)NCCS(=O)(=O)O)[C@H]1CC[C@H]2[C@@H]3[C@@H](O)C[C@@H]4C[C@H](O)CC[C@]4(C)[C@H]3CC[C@]12C` [TUDCA], in test [1], the Km amounted to 6150 µM.
For the compound `C[C@H](CCC(=O)NCCS(=O)(=O)O)[C@H]1CC[C@H]2[C@@H]3[C@H](O)C[C@@H]4C[C@H](O)CC[C@]4(C)[C@H]3CC[C@]12C` [TCDCA], the Km in test [2] turned out to be 132 µM; in test [3], 556 µM; in test [4] it was 695 µM; in test [5] it was 263 µM; in test [6] it was 390 µM.
